Earlier results, collected in PubChem BioAssay AID1259409 (Chemical Carcinogenesis Research Information System (CCRIS), 2018).

Test system: rodent chemically induced tumor inhibition, incidence and multiplicity
Assay: CCRIS tumor inhibitor studies
Settings: Dose [Inhibitor]: 0

**Q.** For CC(O)CCC(=O)c1cccs1 (stereo unspecified), which “tumour outcome (control, treated, inhibition, significance)” value (Carcinogen: 4-(METHYLNITROSAMINO)-1-(3-PYRIDYL)-1-BUTANONE, 64091-91-4, 25 UMOL IN 0.1 ML CORN OIL ONCE 2 HR PRIOR TO CARCINOGEN DOSE (STUDY DURATION: 16 WK), Route [Inhibitor]: GAVAGE, Species: MOUSE, Strain/Sex: STRAIN-A/FEMALE, Target Tissue: Type of Lesion: LUNG: ADENOMA, Dose [Carcinogen]: 10 UMOL IN 0.1 ML SALINE ONCE, Promoter: NONE USED) is on record?
**A.** 100%, 100%, 0%, not significant

**Q.** For CCCCCCCCCCCCCCCCCCOC1=C(O)C([C@@H](O)CO)OC1=O (stereo partly specified), which “tumour outcome (control, treated, inhibition, significance)” value (Carcinogen: NONE USED, 0.1% IN DIET FOR DURATION OF STUDY (STUDY DURATION: 16 MO), Route [Inhibitor]: ORAL, Species: MOUSE, Strain/Sex: C3H/HENCRJ/MALE, Target Tissue: Type of Lesion: LIVER: ADENOMA, Promoter: NONE USED) is on record?
**A.** 17/43 (40%), 20/39 (51%), -28%, not calculated

**Q.** What about the “tumour outcome (control, treated, inhibition, significance)” value (Carcinogen: NONE USED, 0.1% IN DIET FOR DURATION OF STUDY (STUDY DURATION: 16 MO), Route [Inhibitor]: ORAL, Species: MOUSE, Strain/Sex: C3H/HENCRJ/MALE, Target Tissue: Type of Lesion: LIVER: CARCINOMA, Promoter: NONE USED) of the same compound?
**A.** 11/43 (26%), 2/39 (5%), 81%, p<0.05

**Q.** What does the source list for CC(C)C(=O)Nc1ccc([N+](=O)[O-])c(C(F)(F)F)c1?
**A.** tumour outcome (control, treated, inhibition, significance) (Carcinogen: DIETHYLNITROSAMINE, 55-18-5, 0.5 MG/G IN DIET FOR 3 WK BEGINNING AT 25 WK OF AGE (STUDY DURATION: 52 WK), Route [Inhibitor]: ORAL, Species: MOUSE, Strain/Sex: B6C3F1/MALE, Target Tissue: Type of Lesion: LIVER: TUMOR, Dose [Carcinogen]: 0.2 MICROMOLAR/G BW ONCE AT 6 WK OF AGE, Promoter: NONE USED): 81%, 50%, 38%, p<0.05; tumour outcome (control, treated, inhibition, significance) (Carcinogen: DIETHYLNITROSAMINE, 55-18-5, 0.5 MG/G IN DIET FOR 3 WK POST CARCINOGEN DOSE (STUDY DURATION: 52 WK), Route [Inhibitor]: ORAL, Species: MOUSE, Strain/Sex: B6C3F1/MALE, Target Tissue: Type of Lesion: LIVER: TUMOR, Dose [Carcinogen]: 0.2 MICROMOLAR/G BW ONCE AT 6 WK OF AGE, Promoter: NONE USED): 81%, 63%, 22%, not significant; tumour outcome (control, treated, inhibition, significance) (Carcinogen: DIETHYLNITROSAMINE, 55-18-5, 0.5 MG/G IN DIET FOR 27 WK BEGINNING AT 25 WK OF AGE (STUDY DURATION: 52 WK), Route [Inhibitor]: ORAL, Species: MOUSE, Strain/Sex: B6C3F1/MALE, Target Tissue: Type of Lesion: LIVER: TUMOR, Dose [Carcinogen]: 0.2 MICROMOLAR/G BW ONCE, Promoter: NONE USED): 81%, 53%, 35%, p<0.05; tumour outcome (control, treated, inhibition, significance) (Carcinogen: DIETHYLNITROSAMINE, 55-18-5, 0.5 MG/G IN DIET FOR DURATION OF STUDY (STUDY DURATION: 52 WK), Route [Inhibitor]: ORAL, Species: MOUSE, Strain/Sex: B6C3F1/MALE, Target Tissue: Type of Lesion: LIVER: TUMOR, Dose [Carcinogen]: 0.2 MICROMOLAR/G BW ONCE AT 6 WK OF AGE, Promoter: NONE USED): 81%, 97%, -20%, p<0.05; tumour outcome (control, treated, inhibition, significance) (Carcinogen: N-BUTYL-N-(4-HYDROXYBUTYL)NITROSAMINE, 3817-11-6, 50 MG/KG 2/WK FOR 11 WK BEGINNING POST CARCINOGEN TREATMENT (STUDY DURATION:21WK), Route [Inhibitor]: ORAL, Species: RAT, Strain/Sex: WISTAR/MALE, Target Tissue: Type of Lesion: URINARY BLADDER: CARCINOMA, Dose [Carcinogen]: 0.05% IN DRINKING WATER FOR 10 WK, Promoter: NONE USED): 15/17 (88%), 12/16, 75%, 15%, not significant; tumour outcome (control, treated, inhibition, significance) (Carcinogen: N-BUTYL-N-(4-HYDROXYBUTYL)NITROSAMINE, 3817-11-6, 50 MG/KG 2/WK FOR 13 WK BEGINNING POST CARCINOGEN TREATMENT (STUDY DURATION: 20 WK), Route [Inhibitor]: ORAL, Species: RAT, Strain/Sex: WISTAR/MALE, Target Tissue: Type of Lesion: URINARY BLADDER: CARCINOMA, Dose [Carcinogen]: 0.05% IN DRINKING WATER FOR 7 WK, Promoter: NONE USED): 25/39 (64%), 10/21 (48%), 25%, not significant; tumour outcome (control, treated, inhibition, significance) (Carcinogen: N-BUTYL-N-(4-HYDROXYBUTYL)NITROSAMINE, 3817-11-6, 200 MG/KG 2/WK FOR 13 WK BEGINNING POST CARCINOGEN TREATMENT (STUDY DURATION:20 WK), Route [Inhibitor]: ORAL, Species: RAT, Strain/Sex: WISTAR/MALE, Target Tissue: Type of Lesion: URINARY BLADDER: CARCINOMA, Dose [Carcinogen]: 0.05% IN DRINKING WATER FOR 7 WK, Promoter: NONE USED): 25/39 (64%), 5/17 (29%), 55%, p<0.05; tumour outcome (control, treated, inhibition, significance) (Carcinogen: N-NUTYL-N-(4-HYDROXYBUTYL)NITROSAMINE, 3817-11-6, 100 MG/KG 2/WK FOR 13 WK BEGINNING POIST CARCINOGEN TREATMENT (STUDY DURATION: 20 WK), Route [Inhibitor]: ORAL, Species: RAT, Strain/Sex: WISTAR/MALE, Target Tissue: Type of Lesion: URINARY BLADDER: CARCINOMA, Dose [Carcinogen]: 0.05% IN DRINKING WATER FOR 7 WK, Promoter: NONE USED): 25/39 (64%), 7/17 (41%), 36%, not significant

**Q.** Which “tumour outcome (control, treated, inhibition, significance)” value (Carcinogen: 4(METHYLNITROSAMINO)-1-(3-PYRIDYL)-1-BUTANONE, 64091-91-4, 1 UMOL IN 0.1 ML CORN OIL ONCE 2 HR PRIOR TO CARCINOGEN DOSE (STUDY DURATION: 16 WK), Route [Inhibitor]: GAVAGE, Species: MOUSE, Strain/Sex: STRAIN-A/FEMALE, Target Tissue: Type of Lesion: LUNG: ADENOMA, Dose [Carcinogen]: 10 UMOL IN 0.1 ML SALINE ONCE, Promoter: NONE USED) does the source give for CCCCCCCCCCCCN=C=S here?
**A.** 100%, 35%, 65%, p<0.001

**Q.** And the “tumour outcome (control, treated, inhibition, significance)” value (Carcinogen: 4-(METHYLNITROSAMINO)-1-(3-PYRIDYL)-1-BUTANONE, 64091-91-4, 1 UMOL ONCE 2 HR PRIOR TO CARCINOGEN DOSE (STUDY DURATION: 16 WK), Route [Inhibitor]: GAVAGE, Species: MOUSE, Strain/Sex: STRAIN-A/FEMALE, Target Tissue: Type of Lesion: LUNG: ADENOMA, Dose [Carcinogen]: 10 UMOL IN 0.1 ML SALINE ONCE, Promoter: NONE USED)?
**A.** 100%, 35%, 65%, p<0.05

**Q.** What about the “tumour outcome (control, treated, inhibition, significance)” value (Carcinogen: 4-(METHYLNITROSAMINO)-1-(3-PYRIDYL)-1-BUTANONE, 64091-91-4, 5 UMOL ONCE 2 HR PRIOR TO CARCINOGEN DOSE (STUDY DURATION: 16 WK), Route [Inhibitor]: GAVAGE, Species: MOUSE, Strain/Sex: STRAIN-A/FEMALE, Target Tissue: Type of Lesion: LUNG: ADENOMA, Dose [Carcinogen]: 10 UMOL IN 0.1 ML SALINE ONCE, Promoter: NONE USED) of the same compound?
**A.** 100%, 25%, 75%, p<0.05

**Q.** Which “tumour outcome (control, treated, inhibition, significance)” value (Carcinogen: N-NITROSOBIS(2-OXOPROPYL)AMINE [60599-38-4], 3 UG/KG/D FOR 4 WK BEGINNING 1 WK PRIOR TO FIRST CARCINOGEN (STUDY DURATION: 40 WK), Route [Inhibitor]: SUBCUTANEOUSLY IMPLANTED OSMOTIC PUMP, Species: HAMSTER, Strain/Sex: SYRIAN/FEMALE, Target Tissue: Type of Lesion: PANCREAS: ADENOCARCINOMA, Dose [Carcinogen]: 10 MG/KG BW ONCE/WK FOR 3 WK (STUDY DURATION: 40 WK), Promoter: NONE) does the source give for C[C@@H](O)[C@@H]1NC(=O)[C@H](CCCCN)NC(=O)[C@@H](Cc2c[nH]c3ccccc23)NC(=O)[C@H](Cc2ccccc2)NC(=O)[C@@H](NC(=O)[C@H](N)Cc2ccccc2)CSSC[C@@H](C(=O)N[C@H](CO)[C@@H](C)O)NC1=O here?
**A.** 8/18 (44%), 11/20 (55%), -25%, not significant

**Q.** What about the “tumour outcome (control, treated, inhibition, significance)” value (Carcinogen: N-NITROSOBIS(2-OXOPROPYL)AMINE [60599-38-4], 6 UG/KG/D FOR 4 WK BEGINNING 1 WK PRIOR TO FIRST CARCINOGEN (STUDY DURATION: 40 WK), Route [Inhibitor]: SUBCUTANEOUSLY IMPLANTED OSMOTIC PUMP, Species: HAMSTER, Strain/Sex: SYRIAN/FEMALE, Target Tissue: Type of Lesion: PANCREAS: ADENOCARCINOMA, Dose [Carcinogen]: 10 MG/KG BW ONCE/WK FOR 3 WK (STUDY DURATION: 40 WK), Promoter: NONE) of the same compound?
**A.** 8/18 (44%), 9/20 (45%), -2%, not significant
